Experimental data from patent US7125878B2, “Substituted pyrroline kinase inhibitors” (Janssen Pharmaceutica, priority 2002, dated 2006).
Several values for one entry are separate records, joined by “and”; a condition that tells them apart may be missing. Equal values may be shown once. Blank lines part the entries; values can stand above or below the compound they belong to.

Key:
[1] = biological target: PKC-γ (Homo sapiens, UniProt P05129); assay: Protein Kinase C Histone-Based Assay, isozyme γ; details: for inhibition at 10 µM / inhibition at 1 µM: read-out: PKC-γ % inhibition
Procedure: (§1) Compounds were evaluated for PKC isozyme selectivity using histone III as the substrate. […] 100 μg/mL phosphatidylserine, 20 μg/mL diacylglycerol, 30 μM ATP, 1 μCi [^33P]ATP and 200 μg/mL histone III. The reaction was incubated for 10 min at 30° C. Reactions were terminated by TCA precipitation and spotting on Whatman P81 filters. Filters were washed in 75 mM phosphoric acid and the radioactivity quantified by liquid scintillation counting.

[2] = biological target: T1, recombinant rabbit GSK-3β protein (Oryctolagus cuniculus, UniProt G1T8E2); assay: Glycogen Synthase Kinase-3 Assay (33P phosphorylation of PPI-2); assay type: biochemical; details: for IC50: two numbers = data obtained on different days; for inhibition at 1 µM: two numbers = different days; for inhibition at 0.2 µM: @200 nM
T1 construct: purchased New England Biolabs
T1 sequence (G1T8E2 1-432): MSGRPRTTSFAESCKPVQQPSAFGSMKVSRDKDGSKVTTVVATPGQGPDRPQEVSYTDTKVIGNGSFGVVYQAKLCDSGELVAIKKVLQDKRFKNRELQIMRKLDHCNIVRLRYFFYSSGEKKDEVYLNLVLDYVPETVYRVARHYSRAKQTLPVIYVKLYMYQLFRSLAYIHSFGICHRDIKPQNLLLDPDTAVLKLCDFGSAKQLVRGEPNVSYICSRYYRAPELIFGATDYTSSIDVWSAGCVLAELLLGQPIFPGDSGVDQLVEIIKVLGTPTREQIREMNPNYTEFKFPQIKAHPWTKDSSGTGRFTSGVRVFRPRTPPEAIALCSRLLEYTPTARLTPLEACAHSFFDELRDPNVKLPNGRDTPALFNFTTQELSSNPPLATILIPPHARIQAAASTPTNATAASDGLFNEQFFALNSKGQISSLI
Procedure: Glycogen Synthase Kinase-3 Assay
Compounds were tested for the ability to inhibit recombinant rabbit GSK-3β protein using the following protocol. The test compound was added to a reaction mixture containing Protein Phosphatase Inhibitor-2 (PPI-2) (Calbiochem) (45 ng), rabbit GSK-3β protein (New England Biolabs) (0.75 units) and ^33P-ATP (1 μCi) in 50 mM Tris-HCl (pH 8.0), 10 mM MgCl2, 0.1% BSA, 1 mM DTT and 100 μM Sodium Vanadate. The mixture was reacted for 90 minutes at 30° C. to allow phosphorylation of the PPI-2 protein and then the protein in the reaction was precipitated using 10% TCA. The precipitated protein was collected on filter plates (MultiScreen-DV/Millipore), which were subsequently washed. Finally, the radioactivity was quantified using a TopCount Scintillation Counter (Packard). […] Staurosporine or Valproate, known inhibitors of GSK-3β, were used as a positive control for screening.

[3] = biological target: PKC-α (Homo sapiens, UniProt P17252); assay: Protein Kinase C Histone-Based Assay, isozyme α; details: for inhibition at 10 µM / inhibition at 1 µM: read-out: PKC-α % inhibition
Procedure: as §1

[4] = biological target: PKC-βII (Homo sapiens, UniProt P05771); assay: Protein Kinase C Histone-Based Assay, isozyme β-II; assay type: biochemical; details: for IC50: histone III substrate
Sequence of PKC-βII (P05771 1-673 isoform P05771-2): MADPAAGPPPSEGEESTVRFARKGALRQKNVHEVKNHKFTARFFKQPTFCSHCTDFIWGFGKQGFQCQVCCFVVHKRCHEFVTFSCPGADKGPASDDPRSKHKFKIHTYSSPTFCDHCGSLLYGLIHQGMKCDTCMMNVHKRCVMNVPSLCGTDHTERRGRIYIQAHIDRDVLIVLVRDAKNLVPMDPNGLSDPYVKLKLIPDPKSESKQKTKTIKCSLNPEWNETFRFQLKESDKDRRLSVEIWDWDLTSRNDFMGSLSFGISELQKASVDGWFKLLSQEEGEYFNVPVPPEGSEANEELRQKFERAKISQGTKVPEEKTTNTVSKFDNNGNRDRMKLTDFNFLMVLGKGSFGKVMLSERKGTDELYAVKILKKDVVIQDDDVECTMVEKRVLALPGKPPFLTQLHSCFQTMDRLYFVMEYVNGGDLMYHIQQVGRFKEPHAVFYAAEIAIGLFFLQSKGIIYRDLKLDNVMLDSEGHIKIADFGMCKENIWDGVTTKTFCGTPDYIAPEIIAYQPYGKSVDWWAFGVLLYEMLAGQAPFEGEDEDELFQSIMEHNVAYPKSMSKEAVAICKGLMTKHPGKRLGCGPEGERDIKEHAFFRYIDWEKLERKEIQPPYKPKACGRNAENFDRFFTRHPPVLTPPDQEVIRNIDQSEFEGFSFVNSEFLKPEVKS
Procedure: as §1

inhibition at 10 µM [1]: 48%
IC50 [2]: 0.007 µM and 0.009 µM
inhibition at 10 µM [3]: 33%
inhibition at 1 µM [4]: 21%
SMILES: COc1ccccc1C1=C(c2cn(CCCNC=O)c3ncccc23)C(=O)NC1=O [Cpd 78, N-[3-[3-[2,5-dihydro-4-(2-methoxyphenyl)-2,5-dioxo-1H-pyrrol-3-yl]-1H-pyrrolo[2,3-b]pyridin-1-yl]propyl]-formamide]

inhibition at 1 µM [1]: 20%
inhibition at 10 µM [1]: 31%
IC50 [2]: 0.03 µM and 0.031 µM
inhibition at 1 µM [3]: 0%
inhibition at 10 µM [3]: 51%
inhibition at 1 µM [4]: 30%
inhibition at 10 µM [4]: 89%
SMILES: O=C1NC(=O)C(c2cn(CCCO)c3ncccc23)=C1c1cccc2ccccc12 [Cpd 3, 3-[1-(3-hydroxypropyl)-1H-pyrrolo[2,3-b]pyridin-3-yl]-4-(1-naphthalenyl)-1H-pyrrole-2,5-dione]

inhibition at 1 µM [1]: 48%
inhibition at 10 µM [1]: 59%
inhibition at 0.1 µM ([2]; @100 nM): 51%
inhibition at 1 µM [3]: 0%
inhibition at 10 µM [3]: 34%
inhibition at 1 µM [4]: 47%
inhibition at 10 µM [4]: 84%
SMILES: CN(C)CCCn1cc(C2=C(c3cccc4ccccc34)C(=O)NC2=O)c2cccnc21 [Cpd 4, 3-[1-[3-(dimethylamino)propyl]-1H-pyrrolo[2,3-b]pyridin-3-yl]-4-(1-naphthalenyl)-1H-pyrrole-2,5-dione]

IC50 [1]: 0.859 µM
inhibition at 1 µM [2]: 44%
IC50 [3]: 1.44 µM
IC50 [4]: 0.036 µM
SMILES: O=C1NC(=O)C(c2nn(CCCO)c3ccccc23)=C1c1cn(-c2ccc3ccccc3c2)c2ncccc12 [Cpd 21, 3-[1-(3-hydroxypropyl)-1H-indazol-3-yl]-4-[1-(2-naphthalenyl)-1H-pyrrolo[2,3-b]pyridin-3-yl]-1H-pyrrole-2,5-dione]

inhibition at 1 µM [1]: 44%
inhibition at 10 µM [1]: 57%
inhibition at 0.4 µM ([2]; @400 nM): 56%
inhibition at 1 µM [3]: 0%
inhibition at 10 µM [3]: 34%
inhibition at 1 µM [4]: 21%
inhibition at 10 µM [4]: 81%
SMILES: O=C1NC(=O)C(c2cn(CCCO)c3ncccc23)=C1c1csc2ccc(Cl)cc12 [Cpd 5, 3-(5-chlorobenzo[b]thien-3-yl)-4-[1-(3-hydroxypropyl)-1H-pyrrolo[2,3-b]pyridin-3-yl]-1H-pyrrole-2,5-dione]

IC50 [1]: 0.151 µM
inhibition at 1 µM [2]: 21%
IC50 [3]: 0.053 µM
IC50 [4]: 0.002 µM
SMILES: CN(C)CCCn1nc(C2=C(c3cn(-c4ccc5ccccc5c4)c4ncccc34)C(=O)NC2=O)c2ccccc21 [Cpd 20, 3-[1-[3-(dimethylamino)propyl]-1H-indazol-3-yl]-4-[1-(2-naphthalenyl)-1H-pyrrolo[2,3-b]pyridin-3-yl]-1H-pyrrole-2,5-dione]

inhibition at 1 µM [1]: 46%
inhibition at 10 µM [1]: 54%
IC50 [2]: 0.019 µM
inhibition at 1 µM [3]: 0%
inhibition at 10 µM [3]: 1%
inhibition at 1 µM [4]: 22%
inhibition at 10 µM [4]: 50%
SMILES: CN(C)CCCn1cc(C2=C(c3ccccc3Cl)C(=O)NC2=O)c2cccnc21 [Cpd 2, 3-(2-chlorophenyl)-4-[1-[3-(dimethylamino)propyl]-1H-pyrrolo[2,3-b]pyridin-3-yl]-1H-pyrrole-2,5-dione]

IC50 [2]: 0.002 µM and 0.003 µM
inhibition at 10 µM [3]: 26%
inhibition at 1 µM [4]: 49%
SMILES: COc1ccccc1C1=C(c2cn(CCCNC(C)=O)c3ncccc23)C(=O)NC1=O [Cpd 77, N-[3-[3-[2,5-dihydro-4-(2-methoxyphenyl)-2,5-dioxo-1H-pyrrol-3-yl]-1H-pyrrolo[2,3-b]pyridin-1-yl]propyl]-acetamide]

inhibition at 10 µM [1]: 35%
IC50 [2]: 0.008 µM and 0.011 µM
inhibition at 10 µM [3]: 31%
inhibition at 1 µM [4]: 35%
SMILES: COC(=O)NCCCn1cc(C2=C(c3ccccc3OC)C(=O)NC2=O)c2cccnc21 [Cpd 35, [3-[3-[2,5-dihydro-4-(2-methoxyphenyl)-2,5-dioxo-1H-pyrrol-3-yl]-1H-pyrrolo[2,3-b]pyridin-1-yl]propyl]-carbamic acid methyl ester]

IC50 [2]: 0.33 µM
SMILES: O=C1NC(=O)C(c2cn(CCCO)c3ncccc23)=C1/C=C/c1ccc(F)cc1 [Cpd 22, 3-[(E)-2-(4-fluorophenyl)ethenyl]-4-[1-(3-hydroxypropyl)-1H-pyrrolo[2,3-b]pyridin-3-yl]-1H-pyrrole-2,5-dione]

IC50 [2]: 0.015 µM and 0.01 µM
SMILES: COc1ncc(C2=C(c3cn(CCCc4ccccc4)c4ncccc34)C(=O)NC2=O)c(OC)n1 [Cpd 57, 3-(2,4-Dimethoxy-pyrimidin-5-yl)-4-[1-(3-phenyl-propyl)-1H-pyrrolo[2,3-b]pyridin-3-yl]-pyrrole-2,5-dione]

IC50 [2]: 0.037 µM and 0.042 µM
SMILES: O=C1NC(=O)C(c2cn(CCCO)c3ncccc23)=C1c1cncnc1 [Cpd 41, 3-[1-(3-Hydroxy-propyl)-1H-pyrrolo[2,3-b]pyridin-3-yl]-4-pyrimidin-5-yl-pyrrole-2,5-dione]

inhibition at 0.2 µM [2]: 29%
SMILES: O=C1NC(=O)C(c2cn(CCCO)c3ncccc23)=C1c1cn(CCCO)cn1 [Cpd 18, 3-[1-(3-hydroxypropyl)-1H-imidazol-4-yl]-4-[1-(3-hydroxypropyl)-1H-pyrrolo[2,3-b]pyridin-3-yl]-1H-pyrrole-2,5-dione]

IC50 [2]: 0.24 µM
SMILES: COc1ncc(C2=C(c3cn(CCOc4ccc(F)cc4)c4ncccc34)C(=O)NC2=O)c(OC)n1 [Cpd 75, 3-(2,4-Dimethoxy-pyrimidin-5-yl)-4-{1-[2-(4-fluoro-phenoxy)-ethyl]-1H-pyrrolo[2,3-b]pyridin-3-yl}-pyrrole-2,5-dione]

IC50 [2]: 0.625 µM
SMILES: O=C1NC(=O)C(c2cn(CCCc3ccccc3)c3ncccc23)=C1c1cnccn1 [Cpd 60, 3-[1-(3-Phenyl-propyl)-1H-pyrrolo[2,3-b]pyridin-3-yl]-4-pyrazin-2-yl-pyrrole-2,5-dione]

inhibition at 1 µM [2]: 54%
SMILES: COc1ncc(C2=C(c3cn(Cc4ccccc4)c4ncccc34)C(=O)NC2=O)c(OC)n1 [Cpd 72, 3-(1-Benzyl-1H-pyrrolo[2,3-b]pyridin-3-yl)-4-(2,4-dimethoxy-pyrimidin-5-yl)-pyrrole-2,5-dione]

IC50 [2]: 0.051 µM
SMILES: CCn1cc(C2=C(c3cn(CCCO)c4ncccc34)C(=O)NC2=O)c2cccnc21 [Cpd 7, 3-(1-ethyl-1H-pyrrolo[2,3-b]pyridin-3-yl)-4-[1-(3-hydroxypropyl)-1H-pyrrolo[2,3-b]pyridin-3-yl]-1H-pyrrole-2,5-dione]

IC50 [2]: 0.07 µM and 0.12 µM
SMILES: Cn1ccc(C2=C(c3cn(CCCO)c4ncccc34)C(=O)NC2=O)n1 [Cpd 26, 3-[1-(3-hydroxypropyl)-1H-pyrrolo[2,3-b]pyridin-3-yl]-4-(1-methyl-1H-pyrazol-3-yl)-1H-pyrrole-2,5-dione]

IC50 [1]: 4.75 µM
IC50 [2]: 0.014 µM and 0.019 µM
IC50 [3]: 5.27 µM
IC50 [4]: 0.342 µM
SMILES: COC(=O)NCCCn1cc(C2=C(c3ccccc3C(F)(F)F)C(=O)NC2=O)c2cccnc21 [Cpd 37, [3-[3-[2,5-dihydro-4-(2-trifluoromethylphenyl)-2,5-dioxo-1H-pyrrol-3-yl]-1H-pyrrolo[2,3-b]pyridin-1-yl]propyl]-carbamic acid methyl ester]

IC50 [2]: 0.1 µM
SMILES: COc1ncc(C2=C(c3cn(CCc4ccccc4)c4ncccc34)C(=O)NC2=O)c(OC)n1 [Cpd 73, 3-(2,4-Dimethoxy-pyrimidin-5-yl)-4-(1-phenethyl-1H-pyrrolo[2,3-b]pyridin-3-yl)-pyrrole-2,5-dione]

inhibition at 1 µM [1]: 48%
inhibition at 10 µM [1]: 43%
IC50 [2]: 0.009 µM and 0.01 µM
inhibition at 1 µM [3]: 18%
inhibition at 10 µM [3]: 2%
inhibition at 1 µM [4]: 14%
inhibition at 10 µM [4]: 81%
SMILES: O=C1NC(=O)C(c2cn(CCCO)c3ncccc23)=C1c1ccccc1Cl [Cpd 1, 3-(2-chlorophenyl)-4-[1-(3-hydroxypropyl)-1H-pyrrolo[2,3-b]pyridin-3-yl]-1H-pyrrole-2,5-dione]

IC50 [2]: 0.714 µM and 0.635 µM
SMILES: O=C1NC(=O)C(c2cn(CCCc3ccccc3)c3ncccc23)=C1C1=CCCCO1 [Cpd 61, 3-(5,6-Dihydro-4H-pyran-2-yl)-4-[1-(3-phenyl-propyl)-1H-pyrrolo[2,3-b]pyridin-3-yl]-pyrrole-2,5-dione]

IC50 [2]: 0.006 µM
SMILES: O=C1NC(=O)C(c2cn(CCCO)c3ncccc23)=C1c1cc(Cl)sc1Cl [Cpd 15, 3-(2,5-dichloro-3-thienyl)-4-[1-(3-hydroxypropyl)-1H-pyrrolo[2,3-b]pyridin-3-yl]-1H-pyrrole-2,5-dione]

inhibition at 0.2 µM [2]: 25%
SMILES: O=C1NC(=O)C(c2cn(CCCO)c3ncccc23)=C1c1cn(CCO)cn1 [Cpd 19, 3-[1-(2-hydroxyethyl)-1H-imidazol-4-yl]-4-[1-(3-hydroxypropyl)-1H-pyrrolo[2,3-b]pyridin-3-yl]-1H-pyrrole-2,5-dione]

IC50 [2]: 0.088 µM and 0.107 µM
SMILES: O=C1NC(=O)C(c2cn(CCCO)c3ncccc23)=C1c1cc2n(n1)CCC2 [Cpd 50, 3-(5,6-Dihydro-4H-pyrrolo[1,2-b]pyrazol-2-yl)-4-[1-(3-hydroxy-propyl)-1H-pyrrolo[2,3-b]pyridin-3-yl]-pyrrole-2,5-dione]

IC50 [2]: 0.1 µM
SMILES: O=C1NC(=O)C(c2cn(CCCO)c3ncccc23)=C1c1ccn(CCCO)n1 [Cpd 16, 3-[1-(3-hydroxypropyl)-1H-pyrazol-3-yl]-4-[1-(3-hydroxypropyl)-1H-pyrrolo[2,3-b]pyridin-3-yl]-1H-pyrrole-2,5-dione]

IC50 [2]: 0.188 µM and 0.244 µM
SMILES: O=C1NC(=O)C(c2cn(CCCOc3ccccc3)c3ncccc23)=C1c1cc2n(n1)CCC2 [Cpd 65, 3-(5,6-Dihydro-4H-pyrrolo[1,2-b]pyrazol-2-yl)-4-[1-(3-phenoxy-propyl)-1H-pyrrolo[2,3-b]pyridin-3-yl]-pyrrole-2,5-dione]
